Test results taken from US11690858B1, “Neuroprotective mixture for mitigating the harmful effects of ischemic stroke” (Tricerapro Holding, LLC, priority 2018, dated 2023).
Where “and” joins values, the source holds several entries; their conditions need not be identical. Identical values can stand only once.

Legend:
[1] = tested on: rat model of ischemic stroke; assay: Infarct volumes by treatment groups in a rat model of ischemic stroke; assay type: in vivo; design: unit not given here; conditions: for Infarct volume, Contra, Average / Infarct volume, Infarct, Average: average of 5 animals; for Infarct volume, Contra / Infarct volume, Infarct: individual animals; for Infarct volume, Contralateral / Infarct volume, Ipsilateral: rounded average
From the text: Additional studies using a validated rat model for ischemic stroke have also been conducted. These studies made comparisons in stroke volumes between five different treatment groups: a. Ischemic stroke model in aged rats; no reperfusion; no neuroprotection b. Ischemic stroke model in aged rats; no reperfusion; neuroprotection administered c. Ischemic stroke model in aged rats; reperfusion (tPA) given; no neuroprotection d. Ischemic model in young rats; no reperfusion; no neuroprotection e. Ischemic stroke model in young rats; reperfusion (tPA) given; no neuroprotection

[2] = tested on: diffuse anoxia injury model in rats; conditions: cited from earlier work; for amount of neuronal injury: diffuse anoxia injury model in rats; for entry into the cerebrospinal fluid (CSF): rats
[3] = tested on: rat model of ischemic infarct; conditions: cited from earlier work
[4] = tested on: fluid percussion model of head trauma; conditions: diffuse neuronal injury; cited from earlier work

Compound	Infarct volume, Contra, Average ([1]; aged rats, untreated aged 1.412)	Infarct volume, Infarct, Average ([1]; aged rats, untreated aged 12.918)	Infarct volume, Contra ([1]; aged rats)	Infarct volume, Infarct ([1]; aged rats)	Infarct volume, Contralateral ([1]; aged rats, untreated aged 1.4)	Infarct volume, Ipsilateral ([1]; aged rats, untreated aged 12.9)	Infarct volume, Contra, Average ([1]; young rats, untreated young 1.028)	Infarct volume, Infarct, Average ([1]; young rats, untreated young 8.012)	Infarct volume, Contra ([1]; young rats)	Infarct volume, Infarct ([1]; young rats)	Infarct volume, Contralateral ([1]; young rats, untreated young 1)	Infarct volume, Ipsilateral ([1]; young rats, untreated young 8)	amount of neuronal injury [2]	entry into the cerebrospinal fluid (CSF) [2]	average size of infarcts ([3]; intraperitoneal injection, rat model of ischemia, reduced from 165 mm^3) [mm^3]	size of the measured infarct ([3]; intraperitoneal, 1 mmol/kg immediately after MCA occlusion)	extent of neuronal injury [4]
tissue plasminogen activator [IPA]	1.086	8.868	1.29 and 0.87 and 0.81 and 1.39 and 1.07	9.58 and 7.26 and 7.85 and 8.95 and 10.7	1.1	8.9	1.178	4.208	1.07 and 1.28 and 1.66 and 0.52 and 1.36	3.75 and 4.35 and 3.64 and 4.1 and 5.2	1.2	4.2					
O=S(=O)([O-])[O-].[Mg+2] [magnesium sulfate]													alter the amount of neuronal injury	able to enter the cerebrospinal fluid (CSF)			
[Cl-].[Cl-].[Mg+2] [MgCl2, magnesium chloride]													alter the amount of neuronal injury	able to enter the cerebrospinal fluid (CSF)	122	decreased the size of the measured infarct	limits the extent of neuronal injury
